# Source: US20100120762A1, “Triazine derivatives as inhibitors of phosphodiesterases” (WYETH, priority 2008, published 2010)
# Legend:
# PDE2A (NM002599) = biological target: T1, PDE2A (NM002599) (Homo sapiens, UniProt O00408); assay: Inhibition of recombinant PDE2A (expressed in baculovirus/SF21-cells); format: biochemical; conditions: recombinant PDE2A, 0.5 μM [3H]-cAMP, 1000 nM cGMP, 37° C., 30 minutes, SPA; read-out: PDE2A IC50
# T1 construct: made in house; host or cells: baculovirus / SF21 insect cells
# T1 sequence (O00408 whole entry): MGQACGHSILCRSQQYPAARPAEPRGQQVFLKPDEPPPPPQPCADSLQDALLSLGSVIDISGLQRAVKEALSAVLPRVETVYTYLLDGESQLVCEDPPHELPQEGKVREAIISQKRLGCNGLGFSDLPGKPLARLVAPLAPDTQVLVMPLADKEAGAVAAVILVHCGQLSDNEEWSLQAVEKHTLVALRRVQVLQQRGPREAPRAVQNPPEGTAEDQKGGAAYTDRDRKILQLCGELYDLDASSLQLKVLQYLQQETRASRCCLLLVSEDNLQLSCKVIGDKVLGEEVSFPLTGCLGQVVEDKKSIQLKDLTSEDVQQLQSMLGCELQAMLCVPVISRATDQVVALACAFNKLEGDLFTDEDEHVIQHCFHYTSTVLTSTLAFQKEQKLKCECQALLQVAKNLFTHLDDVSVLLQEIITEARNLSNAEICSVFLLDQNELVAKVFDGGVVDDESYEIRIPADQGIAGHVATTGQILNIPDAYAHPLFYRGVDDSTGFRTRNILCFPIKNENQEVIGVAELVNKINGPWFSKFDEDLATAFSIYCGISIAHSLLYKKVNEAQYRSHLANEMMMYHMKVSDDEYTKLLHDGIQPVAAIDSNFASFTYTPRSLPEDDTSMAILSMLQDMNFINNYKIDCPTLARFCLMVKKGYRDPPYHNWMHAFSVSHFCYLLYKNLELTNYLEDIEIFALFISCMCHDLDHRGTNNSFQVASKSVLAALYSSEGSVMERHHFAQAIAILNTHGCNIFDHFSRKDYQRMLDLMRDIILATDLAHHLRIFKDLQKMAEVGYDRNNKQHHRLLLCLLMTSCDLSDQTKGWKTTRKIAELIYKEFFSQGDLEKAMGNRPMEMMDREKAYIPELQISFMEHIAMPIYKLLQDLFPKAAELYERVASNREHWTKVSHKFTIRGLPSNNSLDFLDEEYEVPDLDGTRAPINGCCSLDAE
# Procedure, shortened: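 Human PDE2A membrane fraction from baculovirus-infected SF21 cells; 0.5 μM [3H]-cAMP with 1000 nM cGMP as activator in 50 mM Tris-HCl/5 mM MgCl2 pH 7.4, 30 min at 37° C, SPA read-out. Non-specific activity measured without cGMP; IC50 by 2-parameter Hill fit.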
# PDE10A1 (AB 020593) = biological target: T2, PDE10A1 (AB 020593) (Homo sapiens, UniProt Q9Y233); assay: Inhibition of recombinant PDE10A (baculovirus/SF21 system); format: biochemical; conditions: recombinant cytosolic PDE10A, 0.1 μM [3H]-cAMP, 37° C., 30 minutes, SPA; read-out: PDE10A IC50
# T2 construct: made in house; host or cells: baculovirus / SF21 insect cells (gene synthesized by Entelechon GmbH)
# T2 sequence (Q9Y233 other isoform, or with tags, fused parts or gaps): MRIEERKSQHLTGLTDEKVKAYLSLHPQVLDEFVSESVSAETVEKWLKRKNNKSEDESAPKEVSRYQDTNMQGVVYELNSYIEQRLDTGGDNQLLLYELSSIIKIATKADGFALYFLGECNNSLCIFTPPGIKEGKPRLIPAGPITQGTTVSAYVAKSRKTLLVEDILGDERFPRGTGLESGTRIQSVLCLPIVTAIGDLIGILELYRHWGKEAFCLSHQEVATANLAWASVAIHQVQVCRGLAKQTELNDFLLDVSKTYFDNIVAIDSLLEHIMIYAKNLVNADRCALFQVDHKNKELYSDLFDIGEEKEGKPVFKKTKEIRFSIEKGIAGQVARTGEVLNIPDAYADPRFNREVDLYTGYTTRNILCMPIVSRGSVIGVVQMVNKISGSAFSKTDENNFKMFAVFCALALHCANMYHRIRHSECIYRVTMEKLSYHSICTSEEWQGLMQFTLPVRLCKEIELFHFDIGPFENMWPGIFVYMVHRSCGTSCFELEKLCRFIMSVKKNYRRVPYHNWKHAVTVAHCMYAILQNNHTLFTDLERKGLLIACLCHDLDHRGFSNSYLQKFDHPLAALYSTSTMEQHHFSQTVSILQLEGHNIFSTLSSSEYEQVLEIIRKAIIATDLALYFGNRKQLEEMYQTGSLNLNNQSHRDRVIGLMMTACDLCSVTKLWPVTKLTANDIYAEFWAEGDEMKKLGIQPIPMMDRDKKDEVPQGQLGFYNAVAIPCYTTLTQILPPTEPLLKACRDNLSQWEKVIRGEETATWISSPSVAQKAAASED
# Procedure, shortened: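 Cytosolic PDE10A1 expressed in SF21 cells via baculovirus, incubated with 0.1 μM [3H]-cAMP in 50 mM Tris-HCl/5 mM MgCl2, pH 7.4, 30 min at 37 °C. SPA-bead scintillation read-out, with enzyme-free wells as background. IC50 from Hill plot, 2-parameter model.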
compound,measurement,setting,value
"CCCc1nc(C)c2nnc3ccc(OC)nc3n12 [Example 1, 8-methoxy-3-methyl-1-propyl-imidazo[5,1-c]-pyrido[2,3-e][1,2,4]triazine]",IC50,PDE2A (NM002599),88.8 nM
same,IC50,PDE10A1 (AB 020593),102 nM
same,melting point,,163 to 165 °C
"CCc1nc(C)c2nnc3ccc(OC)nc3n12 [Example 2, 1-ethyl-8-methoxy-3-methyl-imidazo[5,1-c]pyrido[2,3-e][1,2,4]triazine]",IC50,PDE2A (NM002599),399 nM
same,IC50,PDE10A1 (AB 020593),297 nM
same,melting point,,202 to 203 °C
"CCc1ncc2nnc3ccc(OC)nc3n12 [Example 3, 1-ethyl-8-methoxy-imidazo[5,1-c]pyrido[2,3-e][1,2,4]triazine]",IC50,PDE2A (NM002599),> 1000 nM
same,IC50,PDE10A1 (AB 020593),4460 nM
same,melting point,,167 to 168 °C
"COc1ccc2nnc3c(C)nc(-c4ccccc4)n3c2n1 [Example 4, 8-methoxy-3-methyl-1-phenyl-imidazo[5,1-c]-pyrido[2,3-e][1,2,4]triazine]",IC50,PDE2A (NM002599),89.3 nM
same,IC50,PDE10A1 (AB 020593),131 nM
same,melting point,,214 to 217 °C
"COc1ccc2nnc3c(C)ncn3c2n1 [Example 5, 8-methoxy-3-methyl-imidazo[5,1-c]-pyrido[2,3-e][1,2,4]triazine]",IC50,PDE2A (NM002599),> 10000 nM
same,IC50,PDE10A1 (AB 020593),> 1000 nM
same,melting point,,213 to 214 °C
"COc1ccc2nnc3cnc(C(C)C)n3c2n1 [Example 7, 1-isopropyl-8-methoxy-imidazo[5,1-c]-pyrido[2,3-e][1,2,4]triazine]",IC50,PDE2A (NM002599),2980 nM
same,IC50,PDE10A1 (AB 020593),2890 nM
same,melting point,,159 to 162 °C
"COc1ccc2nnc3cnc(-c4ccccc4Cl)n3c2n1 [Example 8, 1-(2-chlorophenyl)-8-methoxy-imidazo[5,1-c]pyrido[2,3-e][1,2,4]triazine]",IC50,PDE2A (NM002599),96.5 nM
same,IC50,PDE10A1 (AB 020593),454 nM
same,melting point,,190 to 193 °C
"COc1ccc2nnc3c(C)nc(-c4ccccn4)n3c2n1 [Example 10, 8-methoxy-3-methyl-1-(2-pyridyl)-imidazo[5,1-c]-pyrido[2,3-e][1,2,4]triazine]",IC50,PDE2A (NM002599),2200 nM
same,IC50,PDE10A1 (AB 020593),3810 nM
same,melting point,,216 to 220 °C
"COc1ccc2nnc3c(C)nc(C4CCCCC4)n3c2n1 [Example 11, 8-methoxy-3-methyl-1-(cyclohexyl)-imidazo[5,1-c]-pyrido[2,3-e][1,2,4]triazine]",IC50,PDE2A (NM002599),56.3 nM
same,IC50,PDE10A1 (AB 020593),41.4 nM
same,melting point,,174 to 177 °C
"CCC(C)c1nc(C)c2nnc3ccc(OC)nc3n12 (stereo not shown) [Example 12, 8-methoxy-3-methyl-1-(sec-butyl)-imidazo[5,1-c]-pyrido[2,3-e][1,2,4]triazine]",IC50,PDE2A (NM002599),136 nM
same,IC50,PDE10A1 (AB 020593),94.8 nM
same,melting point,,157 to 159 °C
"COc1ccc2nnc3c(C)nc(CC(C)C)n3c2n1 [Example 13, 8-methoxy-3-methyl-1-(iso-butyl)-imidazo[5,1-c]-pyrido[2,3-e][1,2,4]triazine]",IC50,PDE2A (NM002599),30.3 nM
same,IC50,PDE10A1 (AB 020593),12.9 nM
same,melting point,,143.5 to 145 °C
"COc1ccnc2c1nnc1c(C)nc(-c3ccncc3C)n12 [Example 114, 4-methoxy-7-methyl-9-(3-methylpyridin-4-yl)imidazo[5,1-c]pyrido[2,3-e][1,2,4]triazine]",IC50,PDE2A (NM002599),2060 nM
same,IC50,PDE10A1 (AB 020593),10.1 nM
"COc1ccnc2c1nnc1c(C)nc(-c3cnccc3C)n12 [Example 115, 4-methoxy-7-methyl-9-(4-methylpyridin-3-yl)imidazo[5,1-c]pyrido[2,3-e][1,2,4]triazine]",IC50,PDE2A (NM002599),1950 nM
same,IC50,PDE10A1 (AB 020593),42.4 nM
"COc1ccnc2c1nnc1c(C)nc(-c3cccnc3C)n12 [Example 116, 4-methoxy-7-methyl-9-(2-methylpyridin-3-yl)imidazo[5,1-c]pyrido[2,3-e][1,2,4]triazine]",IC50,PDE2A (NM002599),1150 nM
same,IC50,PDE10A1 (AB 020593),15.1 nM
"Cc1nc(-c2ccccc2Cl)n2c1nnc1ccc(O)nc12 [Example 117, 1-(2-Chloro-phenyl)-8-hydroxy-3-methyl-imidazo[5,1-c]pyrido[2,3-e][1,2,4]triazine]",IC50,PDE2A (NM002599),3.25 nM
same,IC50,PDE10A1 (AB 020593),27.7 nM
"Cc1nc(-c2cc(Cl)ccc2Cl)n2c1nnc1ccc(Cl)nc12 [Example 118, 8-chloro-1-(2,5-dichloro-phenyl)-3-methyl-imidazo[5,1-c]pyrido[2,3-e][1,2,4]triazine]",IC50,PDE2A (NM002599),11.8 nM
same,IC50,PDE10A1 (AB 020593),228 nM
same,melting point,,151 to 154 °C
"Cc1cn(-c2ccc3nnc4c(C)nc(-c5cc(Cl)ccc5Cl)n4c3n2)c(-c2cc(Cl)ccc2Cl)n1 [Example 119, 1-(2,5-dichloro-phenyl)-8-[2-(2,5-dichloro-phenyl)-4-methyl-imidazol-1-yl]-3-methyl-imidazo[5,1-c]pyrido[2,3-e][1,2,4]triazine]",IC50,PDE2A (NM002599),41 nM
same,IC50,PDE10A1 (AB 020593),240 nM
same,melting point,,130 °C
"Cc1nc(-c2cc(Cl)ccc2Cl)n2c1nnc1ccc(N3CCCC3)nc12 [Example 120, 1-(2,5-Dichloro-phenyl)-3-methyl-8-pyrrolidin-1-yl-imidazo[5,1-c]pyrido[2,3-e][1,2,4]triazine]",IC50,PDE2A (NM002599),3.24 nM
same,IC50,PDE10A1 (AB 020593),48 nM
"COc1ccc2nnc3c(C4CC4)nc(-c4cccc(Cl)c4)n3c2n1 [Example 121, 1-(3-Chloro-phenyl)-3-cyclopropyl-8-methoxy-imidazo[5,1-c]pyrido[2,3-e][1,2,4]triazine]",IC50,PDE2A (NM002599),136 nM
same,IC50,PDE10A1 (AB 020593),> 500 nM
same,melting point,,155 °C
"COc1ccc2nnc3c(C4CC4)nc(-c4ccccn4)n3c2n1 [Example 122, 3-Cyclopropyl-8-methoxy-1-pyridin-2-yl-imidazo[5,1-c]pyrido[2,3-e][1,2,4]triazine]",IC50,PDE2A (NM002599),5190 nM
same,IC50,PDE10A1 (AB 020593),8100 nM
same,melting point,,162 to 164 °C
"Cc1nc(-c2ccccc2Cl)n2c1nnc1ccc(N3CCOCC3)nc12 [Example 123, 1-(2-Chloro-phenyl)-3-methyl-8-morpholin-4-yl-imidazo[5,1-c]pyrido[2,3-e][1,2,4]triazine]",IC50,PDE2A (NM002599),5.13 nM
same,IC50,PDE10A1 (AB 020593),15.7 nM
same,melting point,,251 to 254 °C
"COc1ccc2nnc3c(-c4ccccc4)ncn3c2n1 [Example 124, 8-Methoxy-3-phenyl-imidazo[5,1-c]pyrido[2,3-e][1,2,4]triazine]",IC50,PDE2A (NM002599),> 500 nM
same,IC50,PDE10A1 (AB 020593),> 500 nM
same,melting point,,225 to 227 °C
"c1ccc(-c2ncn3c2nnc2cccnc23)cc1 [Example 125, 3-phenyl-imidazo[5,1-c]pyrido[2,3-e][1,2,4]triazine]",IC50,PDE2A (NM002599),> 1000 nM
same,IC50,PDE10A1 (AB 020593),> 1000 nM
same,melting point,,225 to 227 °C
